From patent US9322066B2, “Predictors for cancer treatment” (priority 2011, dated 2016)

Test system: relapsed or refractory, rituximab-naive or -sensitive follicular B-cell NHL
Test: Duration of response, Vc-R vs rituximab study, by biomarker
Format: in vivo, human
Excerpt: Non-Hodgkin lymphoma (NHL) encompasses several unique malignant lymphoid disease entities that vary in clinical behavior, morphologic appearance, immunologic, and molecular phenotype. […] A randomized, open-label, active-controlled, multicenter, multinational, prospective study to compare the efficacy and safety of the combination of bortezomib and rituximab (Vc-R) to single-agent rituximab in subjects who have relapsed or refractory, rituximab-naive or -sensitive follicular B-cell NHL was performed.
Subjects were centrally randomized to Treatment Groups A (Vc-R) or B (rituximab) in a 1:1 ratio taking into account the following stratification factors: • Follicular Lymphoma International Prognostic Index (FLIPI) score (low [0 or 1 factor], intermediate [2 factors], high [≧3 factors]); • Prior rituximab therapy (yes, no); • Time since last dose of anti-lymphoma therapy (≦1 year, >1 year); • Region (United States/Canada, European Union, Rest of World).
The following clinical endpoints were included in the analysis within each treatment group and an overall comparison was made with the biomarker-related endpoints: Progression-free survival, defined as the interval between the date of randomization and the date of progressive disease (PD) or death, whichever is first reported in the ITT population; overall survival; overall response rate (complete response [CR]+CR unconfirmed [CRu]+partial response [PR]); overall CR rate (CR+CRu); duration of response; time to next anti-lymphoma therapy; and treatment free interval.
Comparison of the response rates between the treatment groups was conducted using the Fishers Exact Test. Duration of response, time to response, and time to clinical relapse were analyzed descriptively, where appropriate, and the biomarker subset was compared (if appropriate, determined as per the initial analysis) to the overall clinical cohort, by treatment group and overall. An exploratory estimate of the response rates in each treatment group was presented with 2-sided 95% confidence intervals. The number and percentage of subjects falling into each response category was descriptively tabulated.

[1] = 20S % NUCLEAR STAINING: 30-50, Prior Rituximab Therapy
[2] = 20S INTENSITY CYTOPLASMIC SIGNAL: ≦2+, Intermediate FLIPI Score
[3] = 20S INTENSITY CYTOPLASMIC SIGNAL: ≧3+, Intermediate FLIPI Score
[4] = 20S INTENSITY CYTOPLASMIC SIGNAL: ≧3+, No Prior Rituximab Therapy
[5] = 20S INTENSITY CYTOPLASMIC SIGNAL: ≧3+, ≦65 years old
[6] = BCL2/ A43G: MND, Ann Arbor Stage IV
[7] = BCL2/ E29K: MND, Ann Arbor Stage IV
[8] = BCL2/ P46L: MD, >1 year since last anti- lymphoma treatment
[9] = BCL2/ P59L: MD, 1 Prior Line of Therapy
[10] = BCL2/ P59L: MD, >1 year since last anti- lymphoma treatment
[11] = BCL2/ P59L: MD, Prior Rituximab Therapy
[12] = BCL2/ R106H: MND, Ann Arbor Stage IV
[13] = CD68 OVERALL POSITIVE: 0-25, High FLIPI Score
[14] = CD68 OVERALL POSITIVE: 0-25, ≦1 year since last anti-lymphoma treatment
[15] = CD68 OVERALL POSITIVE: 51-75, Male
[16] = CD68 OVERALL POSITIVE: >75, Male
[17] = CD68 POSITIVE FOLLICULAR: 0-25, Female
[18] = CD68 POSITIVE PERIFOLLICULAR: >75, Male
[19] = NOTCH/ P2513L: MND, >65 years old
[20] = NOTCH/ X28INS: MND, Ann Arbor Stage IV
[21] = NOTCH/ X28INS: MND, ≦65 years old
[22] = P27 % NUCLEI POSITIVE: 60-70, High FLIPI Score
[23] = P27 % NUCLEI POSITIVE: 60-70, Male
[24] = P65 INTENSITY CYTOPLASMIC SIGNAL: ≦1+, Ann Arbor Stage III

## rituximab
[1]
  Duration of response Evt/N: 9/13
  Duration of response Median: 356
[2]
  Duration of response Evt/N: 9/25
  Duration of response Median: 554
[3]
  Duration of response Evt/N: 17/25
  Duration of response Median: 352
[4]
  Duration of response Evt/N: 22/32
  Duration of response Median: 427
[5]
  Duration of response Evt/N: 28/39
  Duration of response Median: 417
[6]
  Duration of response Evt/N: 23/28
  Duration of response Median: 353
[7]
  Duration of response Evt/N: 21/26
  Duration of response Median: 344
BCL2/ E29K: MND, ≦65 years old
  Duration of response Evt/N: 32/49
  Duration of response Median: 353
[8]
  Duration of response Evt/N: 5/5
  Duration of response Median: 356
[9]
  Duration of response Evt/N: 2/2
  Duration of response Median: 345
[10]
  Duration of response Evt/N: 3/4
  Duration of response Median: 330
BCL2/ P59L: MD, No Subgroup
  Duration of response Evt/N: 4/5
  Duration of response Median: 343
[11]
  Duration of response Evt/N: 3/3
  Duration of response Median: 330
BCL2/ P59L: MD, White
  Duration of response Evt/N: 4/5
  Duration of response Median: 343
[12]
  Duration of response Evt/N: 21/26
  Duration of response Median: 352
[13]
  Duration of response Evt/N: 7/11
  Duration of response Median: 423
[14]
  Duration of response Evt/N: 5/7
  Duration of response Median: 354
[15]
  Duration of response Evt/N: 5/7
  Duration of response Median: 279
[16]
  Duration of response Evt/N: 3/3
  Duration of response Median: 284
[17]
  Duration of response Evt/N: 12/20
  Duration of response Median: 354
[18]
  Duration of response Evt/N: 3/3
  Duration of response Median: 284
[19]
  Duration of response Evt/N: 10/23
  Duration of response Median: 948
[20]
  Duration of response Evt/N: 26/31
  Duration of response Median: 353
[21]
  Duration of response Evt/N: 44/64
  Duration of response Median: 369
[22]
  Duration of response Evt/N: 7/9
  Duration of response Median: 337
[23]
  Duration of response Evt/N: 5/6
  Duration of response Median: 281
[24]
  Duration of response Evt/N: 2/4
  Duration of response Median: 173
PSMB5/R24C: C/C, Ann Arbor Stage II
  Duration of response Evt/N: 4/18
PSMB9/R60H: A/G, Male
  Duration of response Evt/N: 10/11
  Duration of response Median: 211
